Reference: patent publication US8343983B2, “Substituted pyrazolo-pyrimidine compounds” (ArQule, Inc., priority 2009, dated 2013)
Like-named read-outs stand apart in the source and are kept apart here.

Tested on: cancer cells
Test: MTS assay: inhibition of cell growth (formazan absorbance at 492 nm after 72 hours with test compound)
Format: cell-based
Details: inhibition class
Description: Cells were maintained at 37° C., 5% CO2 in DMEM media supplemented with 1% fetal bovine serum, penicillin/streptomycin and fungizone (Invitrogen). Cells were seeded into 96-well tissue culture plates at 3000 per well and cultured at 37° C. for 18 hours. Test compounds were dissolved and diluted to 300× in DMSO then diluted 1:40 in DMEM. Cells were incubated with test compounds for 72 hours followed by incubation with tetrazolium compound (3-(4,5-dimethylthiazol-2-yl)-5-(3-carboxymethoxyphenyl)-2-(4-sulfophenyl)-2H-tetrazolium, inner salt; MTS) and the electron coupling reagent, phenazine methosulfate (PMS) for 4 hours. […] The ability of compounds to inhibit cell growth in this assay is correlated with the reduction of dehydrogenase enzyme activity found in metabolically active cells. The measurement of the absorbance of the formazan was assessed using an ENVISION™ (Perkin Elmer) microplate reader at 492 nm. The calculated IC50 value is the concentration of the test compound that causes a 50% decrease in the absorbance. […] A=>79% inhibition, B=>50 to 79% inhibition, C=<50% inhibition.

[1] = Homo sapiens, DLD-1 cells, read-out: DLD-1, MTS 72 hours at 10 uM
[2] = Homo sapiens, KATO III cells, read-out: KATO III, MTS 72 hours at 10 uM
[3] = Homo sapiens, MDA-MB-231 cells, read-out: MDA-MB-231, MTS 72 hours at 10 uM
[4] = Homo sapiens, NCI-H1299 cells, read-out: NCI-H1299, MTS 72 hours at 10 uM
[5] = Homo sapiens, PC-3 cells, read-out: PC-3, MTS 72 hours at 10 uM
[6] = PACA-2 cells, read-out: PACA-2, MTS 72 hours at 10 uM

## c1ccc(CN2CCc3n[nH]c4nc(N5CCN(c6cnccn6)CC5)nc2c34)cc1 [Compound 56, 6-benzyl-4-(4-pyrazin-2-ylpiperazin-1-yl)-2,6,7,8-tetrahydro-1,2,3,5,6-pentaazaacenaphthylene]
[1]
  inhibition at 10 µM: < 50%
[2]
  inhibition at 10 µM: < 50%
[3]
  inhibition at 10 µM: < 50%
[4]
  inhibition at 10 µM: < 50%
[5]
  inhibition at 10 µM: < 50%
[6]
  inhibition at 10 µM: < 50%

## Fc1cccc(CCNc2nc3c4c(n[nH]c4n2)CCN3Cc2ccccc2)c1 [Compound 94, 6-benzyl-N-[2-(3-fluorophenyl)ethyl]-2,6,7,8-tetrahydro-1,2,3,5,6-pentaazaacenaphthylen-4-amine]
[1]
  inhibition at 10 µM: < 50%
[2]
  inhibition at 10 µM: < 50%
[3]
  inhibition at 10 µM: < 50%
[4]
  inhibition at 10 µM: < 50%
[5]
  inhibition at 10 µM: < 50%
[6]
  inhibition at 10 µM: < 50%

## c1ccc(CN2CCc3n[nH]c4nc(NCCc5ccc(-c6ccccc6)cc5)nc2c34)cc1 [Compound 66, 6-benzyl-N-(2-biphenyl-4-ylethyl)-2,6,7,8-tetrahydro-1,2,3,5,6-pentaazaacenaphthylen-4-amine]
[1]
  inhibition at 10 µM: 50 to 79%
[2]
  inhibition at 10 µM: < 50%
[3]
  inhibition at 10 µM: < 50%
[4]
  inhibition at 10 µM: < 50%
[5]
  inhibition at 10 µM: < 50%
[6]
  inhibition at 10 µM: 50 to 79%

## COc1ccc(CN2CCc3n[nH]c4nc(NCc5cccc(F)c5)nc2c34)cc1 [Compound 113, N-(3-fluorobenzyl)-6-(4-methoxybenzyl)-2,6,7,8-tetrahydro-1,2,3,5,6-pentaazaacenaphthylen-4-amine]
[1]
  inhibition at 10 µM: > 79%
[2]
  inhibition at 10 µM: < 50%
[3]
  inhibition at 10 µM: 50 to 79%
[4]
  inhibition at 10 µM: < 50%
[5]
  inhibition at 10 µM: > 79%
[6]
  inhibition at 10 µM: > 79%

## Clc1cccc(CCNc2nc3c4c(n[nH]c4n2)CCN3Cc2ccccc2)c1 [Compound 12, 6-benzyl-N-[2-(3-chlorophenyl)ethyl]-2,6,7,8-tetrahydro-1,2,3,5,6-pentaazaacenaphthylen-4-amine]
[1]
  inhibition at 10 µM: 50 to 79%
[2]
  inhibition at 10 µM: 50 to 79%
[3]
  inhibition at 10 µM: < 50%
[4]
  inhibition at 10 µM: 50 to 79%
[5]
  inhibition at 10 µM: < 50%
[6]
  inhibition at 10 µM: < 50%

## c1ccc(CN2CCc3n[nH]c4nc(N5CCCCC5)nc2c34)cc1 [Compound 76, 6-benzyl-4-piperidin-1-yl-2,6,7,8-tetrahydro-1,2,3,5,6-pentaazaacenaphthylene]
[1]
  inhibition at 10 µM: < 50%
[2]
  inhibition at 10 µM: < 50%
[3]
  inhibition at 10 µM: < 50%
[4]
  inhibition at 10 µM: < 50%
[5]
  inhibition at 10 µM: < 50%
[6]
  inhibition at 10 µM: < 50%

## c1ccc(CN2CCc3n[nH]c4nc(NCCc5cccnc5)nc2c34)cc1 [Compound 30, 6-benzyl-N-(2-pyridin-3-ylethyl)-2,6,7,8-tetrahydro-1,2,3,5,6-pentaazaacenaphthylen-4-amine]
[1]
  inhibition at 10 µM: 50 to 79%
[2]
  inhibition at 10 µM: 50 to 79%
[3]
  inhibition at 10 µM: 50 to 79%
[4]
  inhibition at 10 µM: < 50%
[5]
  inhibition at 10 µM: < 50%
[6]
  inhibition at 10 µM: < 50%

## COc1cc(CNc2nc3c4c(n[nH]c4n2)CCN3Cc2ccccc2)cc(OC)c1 [Compound 82, 6-benzyl-N-(3,5-dimethoxybenzyl)-2,6,7,8-tetrahydro-1,2,3,5,6-pentaazaacenaphthylen-4-amine]
[1]
  inhibition at 10 µM: < 50%
[2]
  inhibition at 10 µM: < 50%
[3]
  inhibition at 10 µM: < 50%
[4]
  inhibition at 10 µM: < 50%
[5]
  inhibition at 10 µM: < 50%
[6]
  inhibition at 10 µM: < 50%

## O=C(NCCc1ccccc1)C1CN(Cc2ccccc2)c2nc(NCc3ccccc3)nc3[nH]nc1c23 (stereo not drawn) [Compound 235, 6-benzyl-4-(benzylamino)-N-(2-phenylethyl)-2,6,7,8-tetrahydro-1,2,3,5,6-pentaazaacenaphthylene-8-carboxamide]
[1]
  inhibition at 10 µM: > 79%
[2]
  inhibition at 10 µM: > 79%
[3]
  inhibition at 10 µM: > 79%
[4]
  inhibition at 10 µM: > 79%
[5]
  inhibition at 10 µM: > 79%
[6]
  inhibition at 10 µM: > 79%
